Measured values reported in patent US20240251792A1, “WEED CONTROL METHOD” (SYNGENTA CROP PROTECTION AG, priority 2021, published 2024).

Tests used:
Format in all cases: in vivo
[1] = test system: AMARE; assay: Biological efficacy, post-emergence glasshouse test (Table 2); conditions: 1000 g/ha, after 12 days
Protocol: (§1) Seeds of a variety of test species were shown in unsterilised compost in small pots. After cultivation for one day (pre-emergence) or seven days (post-emergence) in controlled conditions in the glasshouse (at 24/16° C., day/night; 14 hours light; 65% humidity) the plants were sprayed with 1 mg of the active ingredient, formulated in 466 μl of a acetone/water/Tween 20 (49.75:49.75:0.5) solution, which is equivalent to 1000 g/ha. Once the foliage was dry, the pots were kept in the glasshouse (at 24/16° C., day/night; 14 hours light; 65% humidity), and were watered twice daily. After 12 days the test was evaluated and scored (100=total damage to plant, 0=no damage to plant).

[2] = test system: DIGSA; assay: as above; conditions: 1000 g/ha, after 12 days
Protocol: as §1

[3] = test system: LOLPE; assay: as above; conditions: 1000 g/ha, after 12 days
Protocol: as §1

[4] = test system: STEME; assay: as above; conditions: 1000 g/ha, after 12 days
Protocol: as §1

[5] = test system: AMARE; assay: Biological efficacy, pre-emergence glasshouse test (Table 2); conditions: 1000 g/ha, after 12 days
Protocol: as §1

[6] = test system: DIGSA; assay: as above; conditions: 1000 g/ha, after 12 days
Protocol: as §1

[7] = test system: LOLPE; assay: as above; conditions: 1000 g/ha, after 12 days
Protocol: as §1

[8] = test system: STEME; assay: as above; conditions: 1000 g/ha, after 12 days
Protocol: as §1

[9] = test system: ABUTH; assay: Pre-emergence biological efficacy (Table 3); conditions: 1000 g/ha, after 13 days
Method in brief: (§2)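 After sowing in pots and one day of glasshouse cultivation, spray is applied at the desired dose from a 50 g/l acetone/AMA stock diluted in 0.2% Genapol X080. Plants grow at 24/18 °C, 15 h light, 50% humidity, and damage is rated 0–100 after 13 days.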

[10] = test system: AMARE; assay: Pre-emergence biological efficacy (Table 3); conditions: 1000 g/ha, after 13 days
Method in brief: as §2

[11] = test system: IPOHE; assay: Pre-emergence biological efficacy (Table 3); conditions: 1000 g/ha, after 13 days
Method in brief: as §2

[12] = test system: STEME; assay: Pre-emergence biological efficacy (Table 3); conditions: 1000 g/ha, after 13 days
Method in brief: as §2

[13] = test system: ZEAMX; assay: Pre-emergence biological efficacy (Table 3); conditions: 1000 g/ha, after 13 days
Method in brief: as §2

[14] = test system: weeds and/or crops; assay: Post-emergence biological efficacy (Table 4); conditions: 1000 g/ha, evaluated after 13 days
Method in brief: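 Weeds and crops were grown 14 days in a glasshouse, then sprayed post-emergence with compound formulated in acetone/F50 and diluted in 0.2% Genapol X080 to the final dose. Damage was scored after 13 days on a 0–100 scale, where 100 is total damage.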

COc1cc(F)c(C(F)(F)C(=O)O)cc1Cl.N [Compound 7-31, Ammonium;2-(5-chloro-2-fluoro-4-methoxy-phenyl)-2,2-difluoro-acetate]
score (100=total damage to plant, 0=no damage to plant) [1]: 100 | score (100=total damage to plant, 0=no damage to plant) [2]: 0 | score (100=total damage to plant, 0=no damage to plant) [3]: 0 | score (100=total damage to plant, 0=no damage to plant) [4]: 0 | score (100=total damage to plant, 0=no damage to plant) [5]: 0 | score (100=total damage to plant, 0=no damage to plant) [6]: 0 | score (100=total damage to plant, 0=no damage to plant) [7]: 0 | score (100=total damage to plant, 0=no damage to plant) [8]: 0 | evaluation (100=total damage to plant; 0=no damage to plant) [9]: 0 | evaluation (100=total damage to plant; 0=no damage to plant) [10]: 0 | evaluation (100=total damage to plant; 0=no damage to plant) [11]: 0 | evaluation (100=total damage to plant; 0=no damage to plant) [12]: 0 | evaluation (100=total damage to plant; 0=no damage to plant) [13]: 0 | damage to plant ABUTH (100=total damage; 0=no damage) ([14]; ABUTH): 0 | damage to plant AMARE (100=total damage; 0=no damage) ([14]; AMARE): 0 | damage to plant IPOHE (100=total damage; 0=no damage) ([14]; IPOHE): 0 | damage to plant STEME (100=total damage; 0=no damage) ([14]; STEME): 0 | damage to plant ZEAMX (100=total damage; 0=no damage) ([14]; ZEAMX): 20

COc1ccc(C(F)(F)C(=O)O)cc1 [Compound 1-2]
score (100=total damage to plant, 0=no damage to plant) [1]: 40 | score (100=total damage to plant, 0=no damage to plant) [2]: 0 | score (100=total damage to plant, 0=no damage to plant) [3]: 0 | score (100=total damage to plant, 0=no damage to plant) [4]: 50 | score (100=total damage to plant, 0=no damage to plant) [5]: 0 | score (100=total damage to plant, 0=no damage to plant) [6]: 0 | score (100=total damage to plant, 0=no damage to plant) [7]: 0 | score (100=total damage to plant, 0=no damage to plant) [8]: 0

O=C(O)C(F)(F)c1ccc(OC(F)(F)F)cc1 [Compound 1-3]
score (100=total damage to plant, 0=no damage to plant) [1]: 70 | score (100=total damage to plant, 0=no damage to plant) [2]: 0 | score (100=total damage to plant, 0=no damage to plant) [3]: 0 | score (100=total damage to plant, 0=no damage to plant) [4]: 30 | score (100=total damage to plant, 0=no damage to plant) [5]: 50 | score (100=total damage to plant, 0=no damage to plant) [6]: 0 | score (100=total damage to plant, 0=no damage to plant) [7]: 30 | score (100=total damage to plant, 0=no damage to plant) [8]: 30

Nc1cccc(C(F)(F)C(=O)O)c1 [Compound 1-8, 2-(3-Aminophenyl)-2,2-difluoro-acetic acid]
score (100=total damage to plant, 0=no damage to plant) [1]: 10 | score (100=total damage to plant, 0=no damage to plant) [2]: 0 | score (100=total damage to plant, 0=no damage to plant) [3]: 0 | score (100=total damage to plant, 0=no damage to plant) [4]: 10 | score (100=total damage to plant, 0=no damage to plant) [5]: 0 | score (100=total damage to plant, 0=no damage to plant) [6]: 0 | score (100=total damage to plant, 0=no damage to plant) [7]: 0 | score (100=total damage to plant, 0=no damage to plant) [8]: 0

COc1ccc(Cl)cc1C(F)(F)C(=O)O [Compound 1-305]
score (100=total damage to plant, 0=no damage to plant) [1]: 50 | score (100=total damage to plant, 0=no damage to plant) [2]: 0 | score (100=total damage to plant, 0=no damage to plant) [3]: 0 | score (100=total damage to plant, 0=no damage to plant) [4]: 0 | score (100=total damage to plant, 0=no damage to plant) [5]: 0 | score (100=total damage to plant, 0=no damage to plant) [6]: 0 | score (100=total damage to plant, 0=no damage to plant) [7]: 0 | score (100=total damage to plant, 0=no damage to plant) [8]: 0

CC(C)Oc1ccccc1C(F)(F)C(=O)O [Compound 1-341]
score (100=total damage to plant, 0=no damage to plant) [1]: 80 | score (100=total damage to plant, 0=no damage to plant) [2]: 20 | score (100=total damage to plant, 0=no damage to plant) [3]: 10 | score (100=total damage to plant, 0=no damage to plant) [4]: 60 | score (100=total damage to plant, 0=no damage to plant) [5]: 30 | score (100=total damage to plant, 0=no damage to plant) [6]: 0 | score (100=total damage to plant, 0=no damage to plant) [7]: 10 | score (100=total damage to plant, 0=no damage to plant) [8]: 30

COc1cc(C(F)(F)C(=O)O)ccc1C [Compound 1-7]
score (100=total damage to plant, 0=no damage to plant) [1]: 40 | score (100=total damage to plant, 0=no damage to plant) [2]: 0 | score (100=total damage to plant, 0=no damage to plant) [3]: 0 | score (100=total damage to plant, 0=no damage to plant) [4]: 70 | score (100=total damage to plant, 0=no damage to plant) [5]: 0 | score (100=total damage to plant, 0=no damage to plant) [6]: 0 | score (100=total damage to plant, 0=no damage to plant) [7]: 0 | score (100=total damage to plant, 0=no damage to plant) [8]: 30

N#Cc1cccc(C(F)(F)C(=O)O)c1 [Compound 1-186]
score (100=total damage to plant, 0=no damage to plant) [1]: 60 | score (100=total damage to plant, 0=no damage to plant) [2]: 0 | score (100=total damage to plant, 0=no damage to plant) [3]: 0 | score (100=total damage to plant, 0=no damage to plant) [4]: 30 | score (100=total damage to plant, 0=no damage to plant) [5]: 10 | score (100=total damage to plant, 0=no damage to plant) [6]: 0 | score (100=total damage to plant, 0=no damage to plant) [7]: 0 | score (100=total damage to plant, 0=no damage to plant) [8]: 10

O=C(O)C(F)(F)c1ccc(OC(F)(F)F)c(Br)c1 [Compound 1-20]
score (100=total damage to plant, 0=no damage to plant) [1]: 70 | score (100=total damage to plant, 0=no damage to plant) [2]: 30 | score (100=total damage to plant, 0=no damage to plant) [3]: 0 | score (100=total damage to plant, 0=no damage to plant) [4]: 0 | score (100=total damage to plant, 0=no damage to plant) [5]: 30 | score (100=total damage to plant, 0=no damage to plant) [6]: 0 | score (100=total damage to plant, 0=no damage to plant) [7]: 0 | score (100=total damage to plant, 0=no damage to plant) [8]: 0

COc1ccc(F)cc1C(F)(F)C(=O)O [Compound 1-304]
score (100=total damage to plant, 0=no damage to plant) [1]: 70 | score (100=total damage to plant, 0=no damage to plant) [2]: 20 | score (100=total damage to plant, 0=no damage to plant) [3]: 20 | score (100=total damage to plant, 0=no damage to plant) [4]: 20 | score (100=total damage to plant, 0=no damage to plant) [5]: 0 | score (100=total damage to plant, 0=no damage to plant) [6]: 0 | score (100=total damage to plant, 0=no damage to plant) [7]: 0 | score (100=total damage to plant, 0=no damage to plant) [8]: 0

CC(C)(C)c1ccc(C(F)(F)C(=O)O)cc1 [Compound 1-1]
score (100=total damage to plant, 0=no damage to plant) [1]: 40 | score (100=total damage to plant, 0=no damage to plant) [2]: 0 | score (100=total damage to plant, 0=no damage to plant) [3]: 0 | score (100=total damage to plant, 0=no damage to plant) [4]: 0 | score (100=total damage to plant, 0=no damage to plant) [5]: 0 | score (100=total damage to plant, 0=no damage to plant) [6]: 0 | score (100=total damage to plant, 0=no damage to plant) [7]: 0 | score (100=total damage to plant, 0=no damage to plant) [8]: 20

O=C(O)C(F)(F)c1ccc(OC(F)F)cc1F [Compound 1-32]
score (100=total damage to plant, 0=no damage to plant) [1]: 30 | score (100=total damage to plant, 0=no damage to plant) [2]: 0 | score (100=total damage to plant, 0=no damage to plant) [3]: 0 | score (100=total damage to plant, 0=no damage to plant) [4]: 40 | score (100=total damage to plant, 0=no damage to plant) [5]: 0 | score (100=total damage to plant, 0=no damage to plant) [6]: 0 | score (100=total damage to plant, 0=no damage to plant) [7]: 0 | score (100=total damage to plant, 0=no damage to plant) [8]: 0

CCOc1ccccc1C(F)(F)C(=O)O [Compound 1-328]
score (100=total damage to plant, 0=no damage to plant) [1]: 80 | score (100=total damage to plant, 0=no damage to plant) [2]: 0 | score (100=total damage to plant, 0=no damage to plant) [3]: 0 | score (100=total damage to plant, 0=no damage to plant) [4]: 60 | score (100=total damage to plant, 0=no damage to plant) [5]: 50 | score (100=total damage to plant, 0=no damage to plant) [6]: 0 | score (100=total damage to plant, 0=no damage to plant) [7]: 0 | score (100=total damage to plant, 0=no damage to plant) [8]: 40

CCc1c(Cl)cccc1C(F)(F)C(=O)O [Compound 1-275, 2-(3-Chloro-2-ethyl-phenyl)-2,2-difluoro-acetic acid]
score (100=total damage to plant, 0=no damage to plant) [1]: 90 | score (100=total damage to plant, 0=no damage to plant) [2]: 30 | score (100=total damage to plant, 0=no damage to plant) [3]: 0 | score (100=total damage to plant, 0=no damage to plant) [4]: 80 | score (100=total damage to plant, 0=no damage to plant) [5]: 100 | score (100=total damage to plant, 0=no damage to plant) [6]: 80 | score (100=total damage to plant, 0=no damage to plant) [7]: 60 | score (100=total damage to plant, 0=no damage to plant) [8]: 100

CCc1ccccc1C(F)(F)C(=O)O [Compound 1-263]
score (100=total damage to plant, 0=no damage to plant) [1]: 50 | score (100=total damage to plant, 0=no damage to plant) [2]: 0 | score (100=total damage to plant, 0=no damage to plant) [3]: 0 | score (100=total damage to plant, 0=no damage to plant) [4]: 50 | score (100=total damage to plant, 0=no damage to plant) [5]: 40 | score (100=total damage to plant, 0=no damage to plant) [6]: 0 | score (100=total damage to plant, 0=no damage to plant) [7]: 0 | score (100=total damage to plant, 0=no damage to plant) [8]: 0
